Results published in ChEMBL document CHEMBL1201862, “PubChem BioAssay data set” (2004).
Active and inactive are the calls of the source.

Key:
[1] = biological target: NADPH oxidase 2 (Homo sapiens, UniProt P04839); assay: PubChem AID 435013
[2] = biological target: T1, NADPH oxidase 1 (Homo sapiens, UniProt Q9Y5S8); format: functional, cell-based;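 note: Cell-based assay with luminescence read-out, IC50 derived from inhibitor dose-response curves; intracellular ROS from endogenous NOX1 in intact HT29 colon cancer cells; potency of inhibitors that lower the ROS luminescence signal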
T1 sequence (Q9Y5S8 whole entry): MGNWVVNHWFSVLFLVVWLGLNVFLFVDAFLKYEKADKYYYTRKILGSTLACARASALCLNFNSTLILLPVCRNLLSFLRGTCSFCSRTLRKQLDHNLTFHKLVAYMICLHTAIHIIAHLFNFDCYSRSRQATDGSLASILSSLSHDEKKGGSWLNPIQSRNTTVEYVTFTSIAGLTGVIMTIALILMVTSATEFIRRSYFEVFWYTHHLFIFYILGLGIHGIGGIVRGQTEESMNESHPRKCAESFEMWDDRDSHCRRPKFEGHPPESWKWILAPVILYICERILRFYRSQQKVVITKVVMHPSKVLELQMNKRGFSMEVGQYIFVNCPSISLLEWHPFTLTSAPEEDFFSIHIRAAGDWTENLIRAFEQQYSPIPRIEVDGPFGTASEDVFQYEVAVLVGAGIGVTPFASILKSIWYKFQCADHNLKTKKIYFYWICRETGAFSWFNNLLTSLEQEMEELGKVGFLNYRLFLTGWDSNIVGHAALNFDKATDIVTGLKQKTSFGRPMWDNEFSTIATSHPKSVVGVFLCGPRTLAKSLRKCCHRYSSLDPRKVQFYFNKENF

[3] = biological target: T1, NADPH oxidase 1; assay: ROS production inhibition in HEK293 cells, late-stage follow-up, counter-screen for NOX1 inhibitor project, cell-based, IC50, set 2 (AID 435002); format: functional
[4] = biological target: NADPH oxidase 3 (Homo sapiens, UniProt Q9HBY0); assay: PubChem AID 435013
[5] = biological target: Ephrin type-A receptor 4 (Mus musculus, UniProt Q03137); assay: inhibitors of EphA4 binding to KYL peptide, primary screen, biochemical, colorimetric, mouse EphA4 (AID 689); format: functional
[6] = biological target: G-protein coupled receptor 55 (Homo sapiens, UniProt Q9Y2T6); assay: GPR55 agonists via beta-arrestin recruitment, primary screen, imaging, U2OS cells, beta-arrestin-GFP redistribution (AID 1961); format: functional
[7] = biological target: Disintegrin and metalloproteinase domain-containing protein 17 (Homo sapiens, UniProt P78536); assay: exosite inhibitors of ADAM17, dose response, biochemical (AID 743260)
[8] = biological target: 1-phosphatidylinositol 4,5-bisphosphate phosphodiesterase beta-3 (Homo sapiens, UniProt Q01970); assay: Fluorescence-based biochemical high throughput dose response assay to identify inhibitors of phospholipase C isozymes (PLC-B3).
[9] = ADAM10 protease inhibitors, dose response, selectivity assay for ADAM17 exosite inhibitor project, biochemical, FRET peptide substrate, recombinant human ADAM10 (AID 743259);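 note: ADAM10 enzyme cleaving a FRET peptide substrate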
[10] = biological target: T2, Troponin, cardiac muscle (Homo sapiens, UniProt P19429+P45379+P63316); assay: inhibitors of cardiac thin filament calcium sensitivity, dose response, biochemical, fluorescence, cardiac regulated thin filaments, triplicate IC50 (AID 504742); format: protein-complex assay
[11] = biological target: T3, RNA-binding protein pos-1 (Caenorhabditis elegans, UniProt G5EF15); assay: inhibitors of POS-1/mex-3 RNA binding, dose response, biochemical, fluorescence polarization (AID 1964);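 note: purified POS-1 fused to maltose binding protein made in E. coli; potency of compounds blocking POS-1 binding to fluorescent RNA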
T3 sequence (G5EF15 whole entry): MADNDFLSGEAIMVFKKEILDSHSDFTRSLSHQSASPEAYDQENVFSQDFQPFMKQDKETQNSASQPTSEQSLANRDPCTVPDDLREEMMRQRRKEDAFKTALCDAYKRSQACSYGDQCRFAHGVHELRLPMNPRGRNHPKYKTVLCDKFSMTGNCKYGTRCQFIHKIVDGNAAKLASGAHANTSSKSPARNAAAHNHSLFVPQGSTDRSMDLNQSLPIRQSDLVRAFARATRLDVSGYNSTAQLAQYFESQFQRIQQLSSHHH

[12] = biological target: 1-phosphatidylinositol 4,5-bisphosphate phosphodiesterase gamma-1 (Homo sapiens, UniProt P19174); assay: Counterscreen for inhibitors of phospholipase C isozymes (PLC-B3): Fluorescence-based biochemical high throughput dose response assay to identify inhibitors of phospholipase C isozymes (PLC-gamma1).
[13] = biological target: T4, Zinc finger protein mex-5 (Caenorhabditis elegans, UniProt Q9XUB2); assay: MEX-5/TCR-2 RNA interaction inhibitors, dose response, biochemical, C. elegans, fluorescence polarization (AID 1960)
T4 sequence (Q9XUB2 whole entry): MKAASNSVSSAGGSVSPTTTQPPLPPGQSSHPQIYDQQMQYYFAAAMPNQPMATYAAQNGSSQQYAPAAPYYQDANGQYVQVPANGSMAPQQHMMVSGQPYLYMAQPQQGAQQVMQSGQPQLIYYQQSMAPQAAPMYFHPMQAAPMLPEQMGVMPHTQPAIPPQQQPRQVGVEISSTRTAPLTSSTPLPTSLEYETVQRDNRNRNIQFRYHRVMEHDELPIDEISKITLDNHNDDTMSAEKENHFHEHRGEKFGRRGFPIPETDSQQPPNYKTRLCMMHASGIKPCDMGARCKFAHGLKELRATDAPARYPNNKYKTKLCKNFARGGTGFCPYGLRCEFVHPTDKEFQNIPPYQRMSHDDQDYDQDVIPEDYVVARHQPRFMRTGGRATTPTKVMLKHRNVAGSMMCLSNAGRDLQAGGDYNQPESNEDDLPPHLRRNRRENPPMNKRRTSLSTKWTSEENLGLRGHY

[14] = biological target: Tyrosyl-DNA phosphodiesterase 2 (Homo sapiens, UniProt O95551); assay: human TDP2 enzyme inhibitors, dose response, biochemical, epi absorbance, IC50 (AID 743297)
[15] = biological target: T2, Troponin, cardiac muscle; assay: Fluorescence-based biochemical high throughput dose response assay for activators of the calcium sensitivity of cardiac Regulated Thin Filaments (RTF). [Related pubchem assays (depositor defined):AID493008, AID493018, AID504382, AID504383]; format: protein-complex assay
[16] = biological target: Alkaline phosphatase, placental type (Homo sapiens, UniProt P05187); assay: PLAP enzyme inhibitors, confirmation, biochemical, luminescence (AID 1512); format: functional
[17] = biological target: Intestinal-type alkaline phosphatase (Homo sapiens, UniProt P09923); assay: inhibition of human intestinal alkaline phosphatase – biochemical, dose response (AID 488876); format: functional
[18] = biological target: Intestinal-type alkaline phosphatase (Mus musculus, UniProt P24822); assay: PubChem AID 488785; format: functional
[19] = biological target: T5, Heat shock factor protein 1 (Mus musculus, UniProt P38532); assay: inhibition of MG132-induced HSE-luciferase signal, confirmation, cell-based, NIH3T3, luminescence, dose retest (AID 2382); format: functional;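 note: NIH3T3 fibroblasts with HSF1-driven luciferase reporter stressed by proteasome inhibitor MG132; luminescence from HSF1-driven luciferase expression after 8 hours of MG132 stress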
T5 sequence (P38532 whole entry): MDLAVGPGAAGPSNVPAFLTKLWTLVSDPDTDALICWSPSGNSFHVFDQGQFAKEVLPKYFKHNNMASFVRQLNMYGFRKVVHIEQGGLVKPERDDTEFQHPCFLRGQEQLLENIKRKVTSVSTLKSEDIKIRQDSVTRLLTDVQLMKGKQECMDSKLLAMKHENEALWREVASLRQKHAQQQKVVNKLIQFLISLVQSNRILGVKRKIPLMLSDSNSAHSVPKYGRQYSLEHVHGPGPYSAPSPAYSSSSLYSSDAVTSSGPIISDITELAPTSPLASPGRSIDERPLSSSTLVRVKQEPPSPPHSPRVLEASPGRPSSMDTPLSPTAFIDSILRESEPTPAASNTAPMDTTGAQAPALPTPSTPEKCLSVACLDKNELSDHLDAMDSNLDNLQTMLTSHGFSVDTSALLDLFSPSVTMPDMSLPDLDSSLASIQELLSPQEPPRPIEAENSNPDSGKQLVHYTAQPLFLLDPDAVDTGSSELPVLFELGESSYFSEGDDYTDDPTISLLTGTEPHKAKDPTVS

[20] = test system: BJ; assay: cytotoxicity toward Ras-transformed BJeLR fibroblasts, dose response, cell-based, alamar blue fluorescence, cherrypicked samples (AID 2631); format: functional; settings: Homo sapiens;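 note: confirmatory dose-response assay in RAS-dependent BJ fibroblasts engineered with TERT, LT and ST, with cytotoxicity read by fluorescence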
[21] = test system: INS1; assay: beta cell apoptosis inhibitors, cytokine rescue, dose response, luminescence, retest (AID 449756); format: functional, cell-based; settings: Rattus norvegicus;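 note: cell death triggered by IL-1 beta plus TNF-alpha plus IFN-gamma mixture; protective hits raise ATP signal compared with cytokine alone wells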
[22] = biological target: T6, Ubiquitin-conjugating enzyme E2 N (Homo sapiens, UniProt P61088); format: functional
T6 sequence (P61088 whole entry): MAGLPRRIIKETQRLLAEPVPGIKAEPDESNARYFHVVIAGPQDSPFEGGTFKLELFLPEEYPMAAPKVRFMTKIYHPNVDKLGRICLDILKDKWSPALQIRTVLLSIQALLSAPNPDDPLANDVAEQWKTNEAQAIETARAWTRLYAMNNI

[23] = test system: BJ; assay: cells; format: functional, cell-based; settings: Homo sapiens
[24] = test system: BJ; assay: cytotoxicity toward BJ-TERT fibroblasts, dose response, cell-based, RAS-independent, luminescence (AID 1933); format: functional; settings: Homo sapiens
[25] = biological target: T7, Type-1 angiotensin II receptor (Homo sapiens, UniProt P30556); assay: AT1 receptor agonists, dose response, selectivity assay for APJ receptor agonist project, cell-based, uHTS hits (AID 488865); format: functional;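 note: beta-arrestin recruitment to AT1 measured by enzyme fragment complementation luminescence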
T7 sequence (P30556 whole entry): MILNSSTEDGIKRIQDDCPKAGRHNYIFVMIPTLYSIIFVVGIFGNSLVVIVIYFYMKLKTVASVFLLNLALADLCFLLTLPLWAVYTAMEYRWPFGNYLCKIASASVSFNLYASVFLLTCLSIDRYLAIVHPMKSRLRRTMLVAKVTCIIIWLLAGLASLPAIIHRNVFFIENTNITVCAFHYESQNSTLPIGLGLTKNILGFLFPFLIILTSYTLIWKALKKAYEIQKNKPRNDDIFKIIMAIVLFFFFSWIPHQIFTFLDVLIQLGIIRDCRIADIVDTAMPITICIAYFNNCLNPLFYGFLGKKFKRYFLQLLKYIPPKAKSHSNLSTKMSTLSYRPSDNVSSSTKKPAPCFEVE

[26] = biological target: T8, Bcl-2-related protein A1 (Mus musculus, UniProt Q07440); format: functional;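 note: confirmatory dose–response counterscreen on Bfl-1, used to check hits from a UBC13 polyubiquitin inhibitor campaign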
T8 sequence (Q07440 whole entry): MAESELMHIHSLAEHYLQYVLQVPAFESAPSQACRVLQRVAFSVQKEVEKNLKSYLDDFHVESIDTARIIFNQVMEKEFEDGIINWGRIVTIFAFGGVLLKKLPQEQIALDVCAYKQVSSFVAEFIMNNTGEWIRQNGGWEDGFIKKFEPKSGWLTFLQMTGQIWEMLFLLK

[27] = biological target: T6, Ubiquitin-conjugating enzyme E2 N; format: functional; remark: listed apart in the source
[28] = cytotoxicity toward DRD oncogenic fibroblasts, dose response, cell-based, non-viral oncogenic, luminescence (AID 1934); format: functional; settings: Homo sapiens
[29] = test system: BJ; assay: cytotoxicity toward BJ-TERT-LT-ST fibroblasts, dose response, cell-based, RAS-independent, luminescence (AID 1935); format: functional; settings: Homo sapiens;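 note: BJ fibroblasts immortalized with TERT plus LT and ST oncogenes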
[30] = biological target: T9, Kappa-type opioid receptor (Homo sapiens, UniProt P41145); assay: SAR analysis of small molecule antagonists of the kappa opioid receptor via a luminescent beta-arrestin assay - Set 3. [Related pubchem assays (depositor defined):AID1777, AID1778, AID1785, AID1786, AID1966, AID2133, AID2136, AID2285, AID2495]; format: functional
[31] = biological target: Mu-type opioid receptor (Homo sapiens, UniProt P35372); assay: SAR Analysis of Antagonists of the MOR Receptor using an Image-Based Assay - Set 3. [Related pubchem assays (depositor defined):AID1777, AID1785, AID1786, AID1966, AID2133, AID2136, AID2284, AID2285, AID2420]; format: functional
[32] = biological target: Delta-type opioid receptor (Homo sapiens, UniProt P41143); assay: SAR Analysis of Antagonists of the DOR Receptor using an Image-Based Assay - Set 3. [Related pubchem assays (depositor defined):AID1777, AID1785]; format: functional;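 note: U2OS cells expressing DOR1 and beta-arrestin GFP stimulated with 100 nM SNC80; imaging of GFP-tagged beta-arrestin moving into spots after receptor activation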
[33] = biological target: T9, Kappa-type opioid receptor; assay: SAR analysis of Antagonists of the Kappa Opioid Receptor (KOR) using an Image-Based Assay - Set 4. [Related pubchem assays (depositor defined):AID1777, AID1785]; format: functional

T9 sequence (P41145 whole entry): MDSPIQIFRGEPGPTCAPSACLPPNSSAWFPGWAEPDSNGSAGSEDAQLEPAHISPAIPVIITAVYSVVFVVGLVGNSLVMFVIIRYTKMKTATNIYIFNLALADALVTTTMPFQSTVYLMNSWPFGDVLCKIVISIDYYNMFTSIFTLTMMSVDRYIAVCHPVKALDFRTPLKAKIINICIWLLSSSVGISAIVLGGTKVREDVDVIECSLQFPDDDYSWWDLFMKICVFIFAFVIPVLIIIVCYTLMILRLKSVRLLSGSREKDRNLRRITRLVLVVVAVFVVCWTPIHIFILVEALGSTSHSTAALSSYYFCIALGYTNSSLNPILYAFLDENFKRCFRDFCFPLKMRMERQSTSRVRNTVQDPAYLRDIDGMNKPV
Sequence of NADPH oxidase 3 (Q9HBY0 whole entry): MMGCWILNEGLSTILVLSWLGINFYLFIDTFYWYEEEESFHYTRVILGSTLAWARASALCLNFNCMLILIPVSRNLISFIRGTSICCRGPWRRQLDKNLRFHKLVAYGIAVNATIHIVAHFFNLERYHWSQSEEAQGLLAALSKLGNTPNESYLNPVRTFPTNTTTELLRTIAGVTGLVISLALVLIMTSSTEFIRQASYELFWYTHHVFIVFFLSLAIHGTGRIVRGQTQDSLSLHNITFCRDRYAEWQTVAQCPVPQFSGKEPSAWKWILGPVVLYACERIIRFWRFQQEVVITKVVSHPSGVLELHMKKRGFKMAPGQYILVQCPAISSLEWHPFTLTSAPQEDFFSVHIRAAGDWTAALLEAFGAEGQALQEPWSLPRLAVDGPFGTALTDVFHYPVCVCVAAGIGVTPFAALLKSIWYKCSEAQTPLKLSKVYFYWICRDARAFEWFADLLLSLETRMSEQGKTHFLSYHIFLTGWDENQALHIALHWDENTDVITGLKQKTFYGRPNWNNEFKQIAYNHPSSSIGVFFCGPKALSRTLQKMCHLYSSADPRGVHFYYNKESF
Sequence of Ephrin type-A receptor 4 (Q03137 whole entry): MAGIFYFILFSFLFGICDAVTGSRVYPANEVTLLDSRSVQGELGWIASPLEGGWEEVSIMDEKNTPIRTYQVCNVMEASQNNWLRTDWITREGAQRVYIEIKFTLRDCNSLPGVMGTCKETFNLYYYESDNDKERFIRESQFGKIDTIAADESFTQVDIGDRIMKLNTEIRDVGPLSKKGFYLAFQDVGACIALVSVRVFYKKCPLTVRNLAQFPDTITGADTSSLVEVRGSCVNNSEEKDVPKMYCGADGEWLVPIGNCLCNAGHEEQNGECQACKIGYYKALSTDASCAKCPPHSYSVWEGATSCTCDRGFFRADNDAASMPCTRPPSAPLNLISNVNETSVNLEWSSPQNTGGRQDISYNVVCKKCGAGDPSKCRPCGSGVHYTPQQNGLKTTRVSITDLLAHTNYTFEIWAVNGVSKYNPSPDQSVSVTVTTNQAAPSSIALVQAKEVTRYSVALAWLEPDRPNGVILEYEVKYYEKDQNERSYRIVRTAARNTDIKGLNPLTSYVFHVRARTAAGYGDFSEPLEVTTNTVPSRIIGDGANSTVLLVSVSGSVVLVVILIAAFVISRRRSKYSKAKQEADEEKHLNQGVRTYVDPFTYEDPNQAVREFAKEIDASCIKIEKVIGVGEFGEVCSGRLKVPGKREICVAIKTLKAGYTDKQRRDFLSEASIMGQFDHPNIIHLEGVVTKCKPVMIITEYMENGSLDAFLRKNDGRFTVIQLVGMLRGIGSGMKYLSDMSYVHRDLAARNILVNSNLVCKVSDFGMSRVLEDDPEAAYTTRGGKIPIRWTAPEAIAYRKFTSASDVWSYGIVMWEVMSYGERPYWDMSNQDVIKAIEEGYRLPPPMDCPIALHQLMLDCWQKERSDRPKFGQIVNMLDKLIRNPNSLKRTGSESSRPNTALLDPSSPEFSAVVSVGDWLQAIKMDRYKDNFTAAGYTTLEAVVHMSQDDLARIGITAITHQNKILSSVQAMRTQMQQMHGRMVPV
Sequence of Tyrosyl-DNA phosphodiesterase 2 (O95551 whole entry): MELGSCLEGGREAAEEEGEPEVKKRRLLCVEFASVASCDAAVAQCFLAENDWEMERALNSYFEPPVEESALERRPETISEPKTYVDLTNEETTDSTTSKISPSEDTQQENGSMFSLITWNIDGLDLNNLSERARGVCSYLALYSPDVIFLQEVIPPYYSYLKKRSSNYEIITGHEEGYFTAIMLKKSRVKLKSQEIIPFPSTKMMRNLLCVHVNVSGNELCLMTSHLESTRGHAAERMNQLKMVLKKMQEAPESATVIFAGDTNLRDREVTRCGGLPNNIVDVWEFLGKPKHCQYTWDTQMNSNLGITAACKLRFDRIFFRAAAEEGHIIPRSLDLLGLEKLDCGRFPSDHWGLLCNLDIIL
Sequence of G-protein coupled receptor 55 (Q9Y2T6 whole entry, the tested form may be a part): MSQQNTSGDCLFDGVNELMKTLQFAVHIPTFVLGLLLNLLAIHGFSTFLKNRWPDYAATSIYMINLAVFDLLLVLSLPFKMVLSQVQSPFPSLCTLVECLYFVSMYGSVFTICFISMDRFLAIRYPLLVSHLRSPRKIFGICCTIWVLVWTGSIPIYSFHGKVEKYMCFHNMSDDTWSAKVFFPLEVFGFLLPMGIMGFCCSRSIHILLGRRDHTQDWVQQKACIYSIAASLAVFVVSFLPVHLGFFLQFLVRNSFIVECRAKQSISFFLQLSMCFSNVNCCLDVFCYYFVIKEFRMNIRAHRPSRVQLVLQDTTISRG
Sequence of NADPH oxidase 2 (P04839 whole entry): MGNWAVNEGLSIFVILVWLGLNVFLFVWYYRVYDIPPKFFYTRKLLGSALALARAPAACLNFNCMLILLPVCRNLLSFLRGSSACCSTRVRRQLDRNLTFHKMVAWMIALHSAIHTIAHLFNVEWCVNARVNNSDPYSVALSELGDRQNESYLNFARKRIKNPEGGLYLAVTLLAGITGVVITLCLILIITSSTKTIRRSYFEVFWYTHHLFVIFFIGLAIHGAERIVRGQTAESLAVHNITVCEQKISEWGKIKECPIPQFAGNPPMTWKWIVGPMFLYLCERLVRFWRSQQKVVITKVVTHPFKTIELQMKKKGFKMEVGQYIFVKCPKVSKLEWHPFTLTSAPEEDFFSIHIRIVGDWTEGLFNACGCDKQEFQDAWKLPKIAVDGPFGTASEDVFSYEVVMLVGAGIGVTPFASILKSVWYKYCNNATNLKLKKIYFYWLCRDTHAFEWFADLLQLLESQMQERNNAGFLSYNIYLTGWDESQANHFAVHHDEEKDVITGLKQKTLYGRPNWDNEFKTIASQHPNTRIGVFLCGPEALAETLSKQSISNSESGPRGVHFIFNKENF
Sequence of 1-phosphatidylinositol 4,5-bisphosphate phosphodiesterase beta-3 (Q01970 whole entry): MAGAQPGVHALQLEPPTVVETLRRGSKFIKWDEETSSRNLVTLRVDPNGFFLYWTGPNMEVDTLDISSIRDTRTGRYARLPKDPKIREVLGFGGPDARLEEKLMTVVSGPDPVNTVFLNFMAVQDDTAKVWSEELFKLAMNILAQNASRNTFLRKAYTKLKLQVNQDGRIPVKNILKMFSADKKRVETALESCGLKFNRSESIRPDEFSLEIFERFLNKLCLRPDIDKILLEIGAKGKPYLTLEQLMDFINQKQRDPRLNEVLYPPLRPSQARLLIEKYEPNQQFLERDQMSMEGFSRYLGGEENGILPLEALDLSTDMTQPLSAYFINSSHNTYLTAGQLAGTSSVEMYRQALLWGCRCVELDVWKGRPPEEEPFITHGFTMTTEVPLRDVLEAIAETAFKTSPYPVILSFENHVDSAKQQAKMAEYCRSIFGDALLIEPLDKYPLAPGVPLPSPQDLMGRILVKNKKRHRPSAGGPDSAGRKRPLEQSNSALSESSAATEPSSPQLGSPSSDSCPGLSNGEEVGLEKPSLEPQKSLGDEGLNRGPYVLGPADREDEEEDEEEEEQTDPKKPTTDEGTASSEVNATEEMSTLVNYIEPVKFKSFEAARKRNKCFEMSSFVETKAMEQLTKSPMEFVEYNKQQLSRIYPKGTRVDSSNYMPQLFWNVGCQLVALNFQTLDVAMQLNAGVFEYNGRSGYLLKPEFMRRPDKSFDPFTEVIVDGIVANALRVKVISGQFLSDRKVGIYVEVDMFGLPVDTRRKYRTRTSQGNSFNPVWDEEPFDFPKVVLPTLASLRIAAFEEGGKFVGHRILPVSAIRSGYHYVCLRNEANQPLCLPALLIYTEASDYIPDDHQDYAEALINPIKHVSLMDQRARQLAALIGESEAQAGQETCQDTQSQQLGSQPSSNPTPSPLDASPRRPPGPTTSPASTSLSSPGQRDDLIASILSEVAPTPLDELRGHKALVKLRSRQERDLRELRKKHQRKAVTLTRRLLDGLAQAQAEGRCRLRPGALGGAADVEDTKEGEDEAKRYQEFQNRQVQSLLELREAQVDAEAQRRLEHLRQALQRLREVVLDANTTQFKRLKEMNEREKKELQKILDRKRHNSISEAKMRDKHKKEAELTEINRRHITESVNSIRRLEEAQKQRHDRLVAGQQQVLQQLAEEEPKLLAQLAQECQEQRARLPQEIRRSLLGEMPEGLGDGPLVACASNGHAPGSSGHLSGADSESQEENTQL
Sequence of Intestinal-type alkaline phosphatase (Mus musculus, UniProt P24822) (P24822 whole entry): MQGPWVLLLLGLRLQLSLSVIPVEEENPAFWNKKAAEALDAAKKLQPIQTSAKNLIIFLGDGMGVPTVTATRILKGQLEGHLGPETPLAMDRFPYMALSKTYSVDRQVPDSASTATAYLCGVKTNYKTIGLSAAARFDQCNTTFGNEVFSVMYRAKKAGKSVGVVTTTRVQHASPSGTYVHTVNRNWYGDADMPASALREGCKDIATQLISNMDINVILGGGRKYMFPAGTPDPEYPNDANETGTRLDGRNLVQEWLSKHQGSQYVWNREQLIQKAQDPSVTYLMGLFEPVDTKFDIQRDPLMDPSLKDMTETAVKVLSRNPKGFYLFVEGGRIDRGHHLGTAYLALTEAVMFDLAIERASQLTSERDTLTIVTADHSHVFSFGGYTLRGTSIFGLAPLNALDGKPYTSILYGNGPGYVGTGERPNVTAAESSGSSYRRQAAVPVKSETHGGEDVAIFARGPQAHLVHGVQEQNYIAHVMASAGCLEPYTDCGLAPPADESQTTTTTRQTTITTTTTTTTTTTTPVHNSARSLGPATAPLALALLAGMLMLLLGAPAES

Oc1c(Br)cc(/C=N/Nc2c(Cl)cncc2Cl)cc1Br
IC50 [1]: > 50 µM (inactive) | IC50 [2]: 0.43 µM (active) | IC50 [3]: 10 µM (active) | IC50 [4]: > 50 µM (inactive)

CCCCN1C(=O)/C(=C/C=C2\N(C)c3ccccc3C2(C)C)SC1=S
IC50 [5]: 5.34 µM (active) | EC50 [6]: 0.731 µM (active)

O=C(O)c1cc(O)c2c(c1)[C@H]([C@H]1c3cc(C(=O)O)cc(O)c3C(=O)c3c(O[C@@H]4O[C@H](CO)[C@@H](O)[C@H](O)[C@H]4O)cccc31)c1cccc(OC3O[C@H](CO)[C@@H](O)[C@H](O)[C@H]3O)c1C2=O (stereo partly drawn)
IC50 [7]: 30.4 µM (inactive) | IC50 [8]: 109 µM (inactive) | IC50 [9]: > 23.2 µM (inactive) | IC50 [10]: 2.72 µM (active) | EC50 [11]: > 300 µM (not active) | IC50 [12]: 18.8 µM (inactive) | EC50 [13]: 7.25 µM (active) | IC50 [14]: > 128 µM (inactive)

Cc1nnc(SCC(=O)NC(C)(C)C)n1C1CCCCC1
EC50 [15]: > 71.5 µM (inactive)

C=C(C)c1cccc(C(C)(C)NC(=O)NC(c2ccccc2)c2ccc(OC)cc2)c1 (stereo not drawn)
IC50 [16]: > 100 µM (inactive) | IC50 [17]: 9.59 µM (active) | IC50 [18]: 7.54 µM (active)

COc1ccc(OC)c2sc(N(CCCN(C)C)C(=O)c3ccc(S(=O)(=O)N4CCc5ccccc5C4)cc3)nc12
EC50 [19]: 5.01 µM (active) | EC50 [20]: 0.289 µM (active) | AC50 [21]: 1.75 µM (active) | IC50 [22]: 1.27 µM (active) | EC50 [23]: 2.43 µM (active) | EC50 [24]: 0.357 µM (inconclusive) | EC50 [25]: > 100 µM (inactive) | IC50 [26]: 8.51 µM (active) | IC50 [27]: 2.47 µM (active) | EC50 [28]: 1.27 µM (inconclusive) | EC50 [29]: 0.432 µM (inconclusive)

O=C(Cn1c(=O)c2cccn2c2cccnc21)NCCCN1CCN(c2ccc3c(c2)OCO3)CC1
IC50 [30]: 4.23 µM (active) | IC50 [31]: > 32 µM (inactive) | IC50 [32]: > 32 µM (inactive) | IC50 [33]: 0.776 µM (active)
